What was measured:
[1] = tested on: patients diagnosed with idiopathic central sleep apnea; test: Hospital based clinical trial of zolpidem: follow-up polysomnogram and Epworth Sleepiness Scale; type: in vivo, human
Description: Idiopathic central sleep apnea was defined by central apnea and hypopnea index (CAHI)≧10 events per hour of sleep, and obstructive apnea/hypopnea index ≦5 events per hour of sleep. An apnea was defined as a cessation or reduction in peak oronasal airflow≧70% of baseline, lasting ≧15 s. Hypopnea was defined as a reduction in peak oronasal airflow ≧50%, ≧70% of baseline for ≧15 s, along with a ≧4% drop in SpO2 relative to pre-event baseline value. The apnea/hypopnea index was calculated for all events relative to total sleep time and documented separately for central and obstructive events. Central apneas and hypopneas comprised the central and obstructive apneas and hypopneas plus mixed apneas and hypopneas comprised the obstructive apnea-hypopnea index (OAHI). Exclusion criteria comprise such as clinical or echocardiographic diagnosis of systolic heart failure, diastolic cardiac dysfunction, or a history of transient ischemic attack or stroke. Those with a typical pattern of Cheyne Stokes respiration during sleep were also excluded. Patients with obstructive sleep apnea with an Apnea-Hypopnea Index of (AHI) ≧5 events per hour prior to continuous positive airway pressure device (CPAP) use, or a history of restless legs syndrome/periodic leg movements were also excluded. […] Patients with hypercapnic lung disease or those with obesity hypoventilation syndrome were also excluded. Subjects were given the Epworth Sleepiness Scale (ESS), and a physical exam followed by an 8-h diagnostic polysomnogram (PSG). […] Outpatient monitoring was conducted every four weeks to assess patients for side effects and for evaluation of daytime sleepiness, using the ESS. […] Nocturnal polysomnographic assessment using the Grass Aurora system was performed in a standard way consisting of an electroencephalogram (EEG), an electrooculogram (EOG), a submental electromyogram (EMG), an anterior tibialis EMG, and an electrocardiogram (ECG) (Rechtschaffen A, Kales A. A manual of standardized terminology, techniques and scoring system for sleep stages in human subjects. Washington D.C.: US Government Printing Office. National Institute of Health Publication; 1968). Nasal-oral airflow was measured using thermocouples. Abdominal and thoracic respiratory movements were recorded with respiratory effort belts using piezoelectric crystal sensors. Transcutaneous oxyhemoglobin saturation (SpO2) was monitored with finger pulse oximetry. A recording of sleep position was performed using video monitoring and snoring was recorded using a snore sensor. An experienced sleep physician, blinded to the study protocol, scored sleep recordings. Sleep architecture was analyzed according to standardized way (Rechtschaffen A, Kales A. A manual of standardized terminology, techniques and scoring system for sleep stages in human subjects. Washington D.C.: US Government Printing Office. National Institute of Health Publication; 1968). Unstimulated saliva samples were collected and biomarker levels measured in the morning prior to beginning and after 150 days of study. Ten minutes prior to collection of unstimulated saliva samples, individuals were asked to rinse orally with water. At the time of sample collection, study members were asked to relax for 5-15 minutes. They were then seated in a bent forward position in an ordinary chair and asked to put their tongues on the lingual surfaces of the upper incisors and allow the saliva to drip into sterile plastic (glass) tubes treated with […] of 2% sodium azide solution to prevent microbial decomposition of saliva. The tubes were held to the lower lip for 10 minutes resulting in a collection of 1-5 ml of saliva per individual.

[2] = tested on: patients with idiopathic central sleep apnea; test: Salivary biomarker levels before and after zolpidem treatment (commercial kits, NMR); type: in vivo, human; conditions: unstimulated saliva, morning, after 150 days of study, mean
Description: Idiopathic central sleep apnea was defined by central apnea and hypopnea index (CAHI)≧10 events per hour of sleep, and obstructive apnea/hypopnea index ≦5 events per hour of sleep. An apnea was defined as a cessation or reduction in peak oronasal airflow≧70% of baseline, lasting ≧15 s. Hypopnea was defined as a reduction in peak oronasal airflow ≧50%, ≧70% of baseline for ≧15 s, along with a ≧4% drop in SpO2 relative to pre-event baseline value. The apnea/hypopnea index was calculated for all events relative to total sleep time and documented separately for central and obstructive events. Central apneas and hypopneas comprised the central and obstructive apneas and hypopneas plus mixed apneas and hypopneas comprised the obstructive apnea-hypopnea index (OAHI). Exclusion criteria comprise such as clinical or echocardiographic diagnosis of systolic heart failure, diastolic cardiac dysfunction, or a history of transient ischemic attack or stroke. Those with a typical pattern of Cheyne Stokes respiration during sleep were also excluded. Patients with obstructive sleep apnea with an Apnea-Hypopnea Index of (AHI) ≧5 events per hour prior to continuous positive airway pressure device (CPAP) use, or a history of restless legs syndrome/periodic leg movements were also excluded. Patients with prior use of sedative agents such as zolpidem, acetazolamide, theophylline, medroxyprogesterone, or any opiate, were also excluded from the study to exclude comparative bias when evaluating subjective response to zolpidem. Patients with hypercapnic lung disease or those with obesity hypoventilation syndrome were also excluded. Subjects were given the Epworth Sleepiness Scale (ESS), and a physical exam followed by an 8-h diagnostic polysomnogram (PSG). […] Outpatient monitoring was conducted every four weeks to assess patients for side effects and for evaluation of daytime sleepiness, using the ESS. […] Nocturnal polysomnographic assessment using the Grass Aurora system was performed in a standard way consisting of an electroencephalogram (EEG), an electrooculogram (EOG), a submental electromyogram (EMG), an anterior tibialis EMG, and an electrocardiogram (ECG) (Rechtschaffen A, Kales A. A manual of standardized terminology, techniques and scoring system for sleep stages in human subjects. Washington D.C.: US Government Printing Office. National Institute of Health Publication; 1968). Nasal-oral airflow was measured using thermocouples. Abdominal and thoracic respiratory movements were recorded with respiratory effort belts using piezoelectric crystal sensors. Transcutaneous oxyhemoglobin saturation (SpO2) was monitored with finger pulse oximetry. A recording of sleep position was performed using video monitoring and snoring was recorded using a snore sensor. An experienced sleep physician, blinded to the study protocol, scored sleep recordings. Sleep architecture was analyzed according to standardized way (Rechtschaffen A, Kales A. A manual of standardized terminology, techniques and scoring system for sleep stages in human subjects. Washington D.C.: US Government Printing Office. National Institute of Health Publication; 1968). Unstimulated saliva samples were collected and biomarker levels measured in the morning prior to beginning and after 150 days of study. Ten minutes prior to collection of unstimulated saliva samples, individuals were asked to rinse orally with water. At the time of sample collection, study members were asked to relax for 5-15 minutes. They were then seated in a bent forward position in an ordinary chair and asked to put their tongues on the lingual surfaces of the upper incisors and allow the saliva to drip into sterile plastic (glass) tubes treated with […] of 2% sodium azide solution to prevent microbial decomposition of saliva. The tubes were held to the lower lip for 10 minutes resulting in a collection of 1-5 ml of saliva per individual. […]

[3] = follow-up polysomnogram vs before treatment

Cc1ccc(-c2nc3ccc(C)cn3c2CC(=O)N(C)C)cc1 [zolpidem]
Excessive daytime sleepiness, measured by the Epworth Sleepiness Scale (ESS), change ([1]; after vs before treatment): decreased | central AHI (CAHI), change on follow-up polysomnogram [1, 3]: significantly decreased | sleep latency, change [1, 3]: decreased | stage 1, 3, and 4 sleep percentages, change [1, 3]: decreased | stage 2 percentages, change [1, 3]: increased | total number of arousals per hour, change with treatment use [1, 3]: decreased | Apnea hypopnea, After ([1]; mean, 10 patients, zolpidem 10 mg orally each night, repeat PSG six to ten weeks after initiation, Before 32.6, P 0.0001): 12.6 | Epworth sleepiness score, After ([1]; mean, zolpidem 10 mg orally each night, Before 13.7, P 0.0001): 6.5 | % TST stage 3 and 4, After ([1]; mean, zolpidem 10 mg orally each night, repeat PSG six to ten weeks, Before 1.3, P 0.05): 0.8% | Total sleep time, After ([1]; mean, zolpidem 10 mg orally each night, repeat PSG six to ten weeks, Before 4.6, P 0.005): 6.3 h | % TST REM, After ([1]; mean, zolpidem 10 mg orally each night, repeat PSG six to ten weeks, Before 10.4, P 0.05): 14.5% | % TST stage 1, After ([1]; mean, zolpidem 10 mg orally each night, repeat PSG six to ten weeks, Before 34.6, P 0.05): 21.3% | Salivary Arginine, After Treatment ([2]; Before Treatment 0.56, P 0.001): 0.45 µmol/mL | Salivary Creatine, After Treatment ([2]; Before Treatment 0.64, P 0.001): 0.47 µmol/mL | Salivary Tyrosine, After Treatment ([2]; Before Treatment 0.67, P 0.005): 0.54 µmol/mL | Salivary CgA, After Treatment ([2]; Before Treatment 13.68, P 0.0001): 4.23 pmol/mg protein | Salivary Dihomo-linolenate, After Treatment ([2]; Before Treatment 34.4, P 0.0001): 27.1 µmol/mL | Salivary Linolenate, After Treatment ([2]; Before Treatment 36.5, P 0.0001): 21.2 µmol/mL | Salivary 3-methyl-2-oxobutyrate, After Treatment ([2]; Before Treatment 61.2, P 0.005): 54.1 µmol/mL | Salivary Annexin 1, After Treatment ([2]; Before Treatment 72.1, P 0.0001): 56.3 ng/mL | Salivary BDNF, After Treatment ([2]; Before Treatment 345.8, P 0.0001): 234.5 pg/mL | Salivary B-endorphin, After Treatment ([2]; Before Treatment 2134.9, P 0.0001): 1235.3 pg/mL
